Legend:
[1] = Optical characterization (excitation/emission maxima, molar extinction coefficient); assay type: physicochemical; settings: in water
[2] = biological target: T1, CA-IX expressing HT-29 cells (Homo sapiens, UniProt Q16790); experiment: Cellular binding assessment by flow cytometry; settings: for Kd: HT-29 cells, 1 hour 30 min on ice, flow cytometry, read-out: CA-IX receptor affinity (KD, nM to HT-29 cells); for KD to HT-29 cells, fold lower than corresponding Reference compound: compound 1 vs Reference 2, compound 2 vs Reference 3; for KD to HT-29 cells compared with Reference 1 (HF-1): versus Reference 1 (HF-1)
T1 construct: CA-IX, expressed in its physiological environment at the cell-surface; host or cells: HT-29 human colorectal adenocarcinoma cells
Experimental: Human colon adenocarcinoma HT-29 cells (ATCC) used for the cellular binding experiments were cultured in McCoy's 5A medium (Sigma-Aldrich), supplemented with 10% HyClone Fetal Clone III (Euroclone), 2 mM L-glutamine (Sigma-Aldrich), 100 IU/mL penicillin, 0.1 mg/mL streptomycin, 0.25 μg/mL amphotericin B (Antibiotic-Antimycotic solution, Life Technologies) and cells were grown at 37° C. in humidified atmosphere enriched with 5% CO2. DPBS without MgCl2 and CaCl2) (Sigma-Aldrich) was used for cell rinsing.
Indeed, by using the anti-human CA-IX antibody MAB2188 (R&D Systems) and the DAKO […], according to the instruction of the datasheet, HT-29 cells were estimated to express about 150,000 CA-IX molecules per cell. Thus, HT-29 cells were used to measure the binding of all compounds to CA-IX, expressed in its physiological environment at the cell-surface. Briefly, HT-29 cells were detached with StemPro® Accutase® Cell Dissociation Reagent (Life Technologies), collected in DPBS and counted. At least 2·10^5 HT-29 cells were placed in 1.5 mL tubes on ice and resuspended in 50-100 μL of cold FACS buffer (eBioscience™ Flow Cytometry Staining Buffer, Invitrogen) containing scalar concentrations of compounds (HF-1, reference 2, and compound 1: range 0-20 μM; reference 3: range 0-24 μM; compound 2: range 0-10 μM). After incubation (1 hour and 30 min on ice in the dark), cells were rinsed 3 times in 300 μL of cold FACS buffer by centrifugation (5 min, 4° C., 350 RCF), discarding the supernatant. Cell pellets were then resuspended in 200 μL of cold FACS buffer (or in an adequate volume in order to obtain no more than 1000 recorded events per μL during FACS analysis) and analyzed with the flow cytometer Accuri™ C6 (BD Biosciences). The mean cell-associated fluorescence was plotted against concentration and the dissociation constant at equilibrium (KD) was inferred by mathematical fitting with GraphPad Prism v.9 software, according to the following equation: […]
where Bmax is the maximum specific binding in the same units as Y; KD is the equilibrium dissociation constant, in the same units as X; NS is the slope of nonspecific binding in Y units divided by X units; and background is the amount of nonspecific binding with no added Compound.
All compounds were analyzed in at least three independent experiments.

CA-IX on HT-29 cells = biological target: T2, CA-IX on HT-29 cells (Homo sapiens, UniProt Q16790); experiment: Cellular specificity: binding to HT-29 cells in competition with MSC8 antibody; assay type: cell-based; settings: compound 1 0.125 μM, MSC8 0.0125/0.125/1.25/2.5 μM, on ice
T2 construct: CA-IX, expressed in its physiological environment at the cell-surface; host or cells: HT-29 human colorectal adenocarcinoma cells
Experimental: HT-29 cells were co-incubated, on ice in suspension, with compound 1, at the established concentration of 0.125 μM, and different concentrations of MSC8 (0.1×, 1×, 10× and 20× with respect to compound 1, i.e. 0.0125/0.125/1.25/2.5 μM); in addition, HT-29 cells were incubated with either compound 1 alone, or each concentration of MSC8 alone as well. The resulting binding of both compound 1 and MSC8 was then recorded as cell-associated fluorescence intensity, using for MSC8 a secondary antibody labelled with Alexa Fluor™ 488 (ThermoFischer), and compared to the one resulting from both compounds alone, taken as 100%.

target receptor CA-IX = biological target: T3, target receptor CA-IX (Homo sapiens, UniProt Q16790); experiment: Cell uptake competition with 100x excess acetazolamide; assay type: cell-based; settings: for % uptake in presence of 100x excess acetazolamide: 1 μM, 2 hours at 37° C., residual cellular uptake; for share of cell-associated fluorescence due to non-specific cellular uptake: flow cytometry
T3 construct: endogenous in cells
Experimental: The receptor-mediated uptake, i.e. whether the uptake of the probes was mediated by binding to the target receptor CA-IX, was analyzed by performing competition experiments.

SMILES | molar extinction coefficient (ε) [1] | Kd [2] | KD to HT-29 cells, fold lower than corresponding Reference compound [2] | KD to HT-29 cells compared with Reference 1 (HF-1) [2] | binding of compound 1 to HT-29 cells in presence of MSC8 (CA-IX on HT-29 cells) | % uptake in presence of 100x excess acetazolamide (target receptor CA-IX) | share of cell-associated fluorescence due to non-specific cellular uptake (target receptor CA-IX)
CC1(C)C(/C=C/C2=C(Oc3ccc(S(=O)(=O)O)cc3)C(=C/C=C3/N(CCCCCC(=O)NCCCCCCCC(=O)Nc4nnc(S(N)(=O)=O)s4)c4ccc(C(=O)NC[C@H](O)[C@@H](O)[C@H](O)[C@H](O)CO)cc4C3(C)C)/CCC2)=[N+](CCCCS(=O)(=O)[O-])c2ccc(C(=O)NC[C@H](O)[C@@H](O)[C@H](O)[C@H](O)CO)cc21 [Compound 1] | 250000 M⁻¹ cm⁻¹ | 174 ± 15 nM | 2 fold | rather comparable | reduced in a dose-dependent manner | 6.5 ± 2.2% | about 10%
CC(CC[N+]1=C(/C=C/C=C/C=C/C=C2/N(CCCCCC(=O)NCCCCCCCC(=O)Nc3nnc(S(N)(=O)=O)s3)c3ccc(C(=O)NC[C@H](O)[C@@H](O)[C@H](O)[C@H](O)CO)cc3C2(C)C)C(C)(C)c2cc(C(=O)NC[C@H](O)[C@@H](O)[C@H](O)[C@H](O)CO)ccc21)S(=O)(=O)[O-] (stereo partly shown) [Compound 2] | 250000 M⁻¹ cm⁻¹ | 58 ± 9 nM | more than 4 fold | 2 fold | – | 11.3 ± 1.7% | about 10%

Reference: patent US20260009799A1, “CA-IX TARGETING FLUORESCENT PROBES” (BRACCO IMAGING S.P.A., priority 2022, published 2026)
